Experimental data: EPA's ToxRefDB 2

How the values were obtained:
dog [1] = conditions: Chronic toxicity, beagle, Oral, Capsule, dose end: 12 month, group: systemic
rat [2] = conditions: Combined chronic toxicity/carcinogenicity; wistar; Oral; Feed; dose end: 28 month; group: systemic; systemic / in life observation / body weight / body weight + systemic / in life observation / body weight / body weight gain
rabbit = conditions: Prenatal developmental toxicity study, dutch, Oral, Gavage/Intubation, dose end: 18 GD
rat [3] = conditions: Prenatal developmental toxicity study, wistar, Oral, Gavage/Intubation, dose end: 16 GD
rat [4] = conditions: Multigenerational reproductive toxicity study, sprague dawley, Oral, Feed, dose end: 2 generation
rat [5] = conditions: Subchronic oral toxicity in rodents, wistar, Feed, dose end: 3 month, group: systemic
dog [6] = conditions: Chronic toxicity, beagle, Oral, Feed, dose end: 12 month, group: systemic
[7] = systemic / clinical chemistry / gamma glutamyl transferase (ggt) / gamma glutamyl transferase (ggt)
[8] = group: developmental, developmental / developmental malformation / bone / incomplete ossification + developmental / developmental malformation / bone / misshapen…
[9] = group: maternal, reproductive / reproductive performance / aborted / aborted + systemic / in life observation / food consumption / food consumption + …
[10] = group: developmental, developmental / developmental malformation / bone / bent + developmental / developmental malformation / bone / incomplete ossification + …
[11] = group: maternal, reproductive / reproductive performance / resorptions / resorptions + systemic / in life observation / body weight / body weight gain + …
[12] = group: offspring, systemic / in life observation / clinical signs / reduced body size
[13] = group: offspring, systemic / in life observation / clinical signs / reduced body size + systemic / in life observation / body weight / offspring (pup) weight
[14] = group: parental, systemic / in life observation / body weight / body weight + systemic / in life observation / body weight / body weight gain + systemic / in…
[15] = group: parental, systemic / in life observation / body weight / body weight + systemic / in life observation / food consumption / food consumption
[16] = systemic / hematology / hemoglobin (hgb) / hemoglobin (hgb) + systemic / in life observation / body weight / body weight gain + systemic / …
[17] = systemic / urinalysis / appearance and color / appearance and color

With CCCN(CCC)c1c([N+](=O)[O-])cc(C(F)(F)F)cc1[N+](=O)[O-] [Trifluralin] the LEL (dog [1]; [7]) was 0.75 mg/kg/day, the NEL (dog [1]; [7]) was < 0.75 mg/kg/day and the NOAEL (dog [1]; systemic / clinical chemistry / gamma glutamyl transferase (ggt) / gamma glutamyl transferase (ggt) + systemic / in life observation / body …) was 2.4 mg/kg/day. For the same molecule, the LOAEL (dog [1]; systemic / in life observation / body weight / body weight + systemic / in life observation / body weight / body weight gain + systemic / in…) was 40 mg/kg/day, the LEL (rat [2]) was 169 mg/kg/day and the LOAEL (rat [2]) was 169 mg/kg/day. For the same molecule, the NEL (rat [2]) was 40 mg/kg/day, the NOAEL (rat [2]) was 40 mg/kg/day and the LEL (rabbit; [8]) was 500 mg/kg/day. For the same molecule, the LOAEL (rabbit; [8]) was 500 mg/kg/day, the NEL (rabbit; [8]) was 225 mg/kg/day and the NOAEL (rabbit; [8]) was 225 mg/kg/day. For the same molecule, the LEL (rabbit; [9]) was 225 mg/kg/day, the LOAEL (rabbit; [9]) was 225 mg/kg/day and the NEL (rabbit; [9]) was 100 mg/kg/day. It also gave an NOAEL (rabbit; [9]) of 100 mg/kg/day, an LEL (rat [3]; [10]) of 500 mg/kg/day and an LOAEL (rat [3]; [10]) of 500 mg/kg/day. For the same molecule, the NEL (rat [3]; [10]) was 100 mg/kg/day, the NOAEL (rat [3]; [10]) was 100 mg/kg/day and the LEL (rat [3]; [11]) was 500 mg/kg/day. It also gave an LOAEL (rat [3]; [11]) of 500 mg/kg/day, an NEL (rat [3]; [11]) of 100 mg/kg/day and an NOAEL (rat [3]; [11]) of 100 mg/kg/day. The LEL (rat [4]; [12]) was 47 mg/kg/day, the LOAEL (rat [4]; [12]) was 47 mg/kg/day and the NEL (rat [4]; [13]) was 15 mg/kg/day. The NOAEL (rat [4]; [13]) was 15 mg/kg/day, the NEL (rat [4]; [14]) was 15 mg/kg/day and the NOAEL (rat [4]; [14]) was 15 mg/kg/day. For the same molecule, the LEL (rat [4]; [15]) was 47 mg/kg/day, the LOAEL (rat [4]; [15]) was 47 mg/kg/day and the LOAEL (rat [5]; [16]) was 392 mg/kg/day. The NOAEL (rat [5]; [16]) was 154 mg/kg/day, the LEL (rat [5]; [17]) was 59 mg/kg/day and the NEL (rat [5]; [17]) was < 59 mg/kg/day. For the same molecule, the NEL (dog [6]; systemic / hematology / methemoglobin / methemoglobin + systemic / clinical chemistry / cholesterol / cholesterol + systemic / clinical …) was 0.8 mg/kg/day, the LOAEL (dog [6]; systemic / organ weight / liver / absolute) was 3.8 mg/kg/day and the NOAEL (dog [6]; systemic / organ weight / liver / absolute + systemic / clinical chemistry / cholesterol / cholesterol + systemic / clinical chemistry / …) was 0.8 mg/kg/day. For the same molecule, the LEL (dog [6]; systemic / organ weight / liver / absolute + systemic / hematology / methemoglobin / methemoglobin) was 3.8 mg/kg/day.
